This is an account of results in patent publication US20180280377A1, “Imidazo[4,5-c]quinolin-2-one Compounds and Their Use in Treating Cancer” (ASTRAZENECA AB, priority 2015, published 2018).

Molecules are shown by their SMILES. A value given as a limit tells only on which side of the number the result lay.

For one experiment, the target named is T1, ATM (Homo sapiens, UniProt Q13315).
T1 construct: endogenous in cells; host or cells: HT29 cells (ECACC #85061109)
The experiment in a line: ATM cellular potency assay (pATM Ser1981 in irradiated HT29 cells). The experiment is classed as cell-based. The conditions noted are these: 1 h compound, X-ray irradiation, pATM (Ser1981); Table 2; read-out: Assay a) ATM Cell IC50.

The target of a further experiment is PI3Kα (Homo sapiens, UniProt P42336). Kind of experiment: PI3K cellular potency assay (phospho-Akt T308 in BT474 cells, ELISA). The conditions noted are these: 2 h, phospho-Akt (T308); Table 2; read-out: Assay c) PI3Kα Cell IC50. Type of experiment: cell-based. The procedure:
The following assays were used to measure the effects of the compounds of the present invention: a) ATM cellular potency assay; b) PI3K cellular potency assay; c) mTOR cellular potency assay; d) ATR cellular potency assay. During the description of the assays, generally: • i. […] IC50 values were calculated using a smart fitting model in Genedata.
This assay was used to measure PI3K-α inhibition in cells. PDK1 was identified as the upstream activation loop kinase of protein kinase B (Akt1), which is essential for the activation of PKB. Activation of the lipid kinase phosphoinositide 3 kinase (PI3K) is critical for the activation of PKB by PDK1.
Following ligand stimulation of receptor tyrosine kinases, PI3K is activated, which converts PIP2 to PIP3, which is bound by the PH domain of PDK1 resulting in recruitment of PDK1 to the plasma membrane where it phosphorylates AKT at Thr308 in the activation loop.
The aim of this cell-based mode of action assay is to identify compounds that inhibit PDK activity or recruitment of PDK1 to membrane by inhibiting PI3K activity. Phosphorylation of phospho-Akt (T308) in BT474c cells following treatment with compounds for 2 h is a direct measure of PDK1 and indirect measure of PI3K activity.
The following morning compounds in 100% DMSO were added to assay plates by acoustic dispensing.
Plates were incubated over night at 4° C. The next day the plates were washed with PBS buffer containing 0.05% Tween 20 and further incubated with a mouse monoclonal anti-phospho AKT T308 for 2 h. Plates were washed again as above before addition of a horse anti-mouse-HRP conjugated secondary antibody. […] The developed fluorescent product was stopped after 60 minutes by addition of Stop solution to the wells.
A general note: In an ELISA, binding on a coated surface is turned into a signal by an enzyme label.

What is called IC50 is the point on the concentration scale where inhibition reaches its midpoint.

Chain of PI3Kα (P42336 whole entry): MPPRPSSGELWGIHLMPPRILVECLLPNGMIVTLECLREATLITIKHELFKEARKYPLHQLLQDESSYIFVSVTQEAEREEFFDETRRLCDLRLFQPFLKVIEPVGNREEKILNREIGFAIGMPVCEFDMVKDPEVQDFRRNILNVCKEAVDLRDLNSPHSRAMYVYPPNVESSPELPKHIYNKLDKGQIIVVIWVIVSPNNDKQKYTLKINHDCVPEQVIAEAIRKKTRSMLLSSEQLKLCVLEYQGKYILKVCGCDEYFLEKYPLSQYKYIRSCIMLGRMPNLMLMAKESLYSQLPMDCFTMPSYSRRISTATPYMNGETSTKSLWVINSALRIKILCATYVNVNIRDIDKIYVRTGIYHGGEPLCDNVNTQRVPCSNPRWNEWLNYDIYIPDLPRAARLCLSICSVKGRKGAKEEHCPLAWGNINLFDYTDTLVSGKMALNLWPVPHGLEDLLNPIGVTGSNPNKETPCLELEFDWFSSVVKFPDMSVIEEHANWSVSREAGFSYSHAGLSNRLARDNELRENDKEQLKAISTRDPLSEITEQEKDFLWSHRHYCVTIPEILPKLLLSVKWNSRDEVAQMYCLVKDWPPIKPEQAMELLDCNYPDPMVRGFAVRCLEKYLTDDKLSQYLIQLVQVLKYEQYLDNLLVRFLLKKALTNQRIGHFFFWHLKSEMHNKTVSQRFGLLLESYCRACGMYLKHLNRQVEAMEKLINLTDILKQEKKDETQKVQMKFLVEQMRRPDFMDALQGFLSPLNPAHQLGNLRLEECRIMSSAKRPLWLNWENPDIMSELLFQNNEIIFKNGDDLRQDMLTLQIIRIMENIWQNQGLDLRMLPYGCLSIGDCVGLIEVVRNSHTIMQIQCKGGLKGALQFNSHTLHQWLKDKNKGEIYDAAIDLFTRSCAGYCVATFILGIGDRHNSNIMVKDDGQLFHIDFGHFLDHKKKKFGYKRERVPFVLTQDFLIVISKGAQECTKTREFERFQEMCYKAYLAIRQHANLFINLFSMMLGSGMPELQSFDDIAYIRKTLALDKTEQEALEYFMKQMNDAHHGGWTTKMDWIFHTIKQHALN
Chain of PI3Kα (P27986 2-724, further chain): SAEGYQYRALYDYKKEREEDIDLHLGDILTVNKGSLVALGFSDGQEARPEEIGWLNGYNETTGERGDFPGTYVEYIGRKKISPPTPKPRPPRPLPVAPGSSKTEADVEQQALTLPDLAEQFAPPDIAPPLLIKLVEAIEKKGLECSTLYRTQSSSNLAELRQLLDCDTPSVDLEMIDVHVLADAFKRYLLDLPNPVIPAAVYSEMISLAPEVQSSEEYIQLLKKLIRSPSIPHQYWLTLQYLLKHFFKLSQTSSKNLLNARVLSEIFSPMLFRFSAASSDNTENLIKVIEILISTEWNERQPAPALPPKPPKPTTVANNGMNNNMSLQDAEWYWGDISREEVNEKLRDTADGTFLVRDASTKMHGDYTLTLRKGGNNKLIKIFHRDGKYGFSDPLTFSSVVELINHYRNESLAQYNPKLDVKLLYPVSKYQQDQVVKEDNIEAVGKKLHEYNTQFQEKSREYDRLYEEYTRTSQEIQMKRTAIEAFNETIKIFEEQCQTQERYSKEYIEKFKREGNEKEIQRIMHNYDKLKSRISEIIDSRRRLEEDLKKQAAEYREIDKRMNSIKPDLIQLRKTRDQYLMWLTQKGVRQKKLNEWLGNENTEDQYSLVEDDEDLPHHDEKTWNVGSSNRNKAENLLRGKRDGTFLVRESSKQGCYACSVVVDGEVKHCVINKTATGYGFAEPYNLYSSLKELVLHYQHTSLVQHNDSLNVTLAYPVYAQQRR
T1 sequence (Q13315 whole entry): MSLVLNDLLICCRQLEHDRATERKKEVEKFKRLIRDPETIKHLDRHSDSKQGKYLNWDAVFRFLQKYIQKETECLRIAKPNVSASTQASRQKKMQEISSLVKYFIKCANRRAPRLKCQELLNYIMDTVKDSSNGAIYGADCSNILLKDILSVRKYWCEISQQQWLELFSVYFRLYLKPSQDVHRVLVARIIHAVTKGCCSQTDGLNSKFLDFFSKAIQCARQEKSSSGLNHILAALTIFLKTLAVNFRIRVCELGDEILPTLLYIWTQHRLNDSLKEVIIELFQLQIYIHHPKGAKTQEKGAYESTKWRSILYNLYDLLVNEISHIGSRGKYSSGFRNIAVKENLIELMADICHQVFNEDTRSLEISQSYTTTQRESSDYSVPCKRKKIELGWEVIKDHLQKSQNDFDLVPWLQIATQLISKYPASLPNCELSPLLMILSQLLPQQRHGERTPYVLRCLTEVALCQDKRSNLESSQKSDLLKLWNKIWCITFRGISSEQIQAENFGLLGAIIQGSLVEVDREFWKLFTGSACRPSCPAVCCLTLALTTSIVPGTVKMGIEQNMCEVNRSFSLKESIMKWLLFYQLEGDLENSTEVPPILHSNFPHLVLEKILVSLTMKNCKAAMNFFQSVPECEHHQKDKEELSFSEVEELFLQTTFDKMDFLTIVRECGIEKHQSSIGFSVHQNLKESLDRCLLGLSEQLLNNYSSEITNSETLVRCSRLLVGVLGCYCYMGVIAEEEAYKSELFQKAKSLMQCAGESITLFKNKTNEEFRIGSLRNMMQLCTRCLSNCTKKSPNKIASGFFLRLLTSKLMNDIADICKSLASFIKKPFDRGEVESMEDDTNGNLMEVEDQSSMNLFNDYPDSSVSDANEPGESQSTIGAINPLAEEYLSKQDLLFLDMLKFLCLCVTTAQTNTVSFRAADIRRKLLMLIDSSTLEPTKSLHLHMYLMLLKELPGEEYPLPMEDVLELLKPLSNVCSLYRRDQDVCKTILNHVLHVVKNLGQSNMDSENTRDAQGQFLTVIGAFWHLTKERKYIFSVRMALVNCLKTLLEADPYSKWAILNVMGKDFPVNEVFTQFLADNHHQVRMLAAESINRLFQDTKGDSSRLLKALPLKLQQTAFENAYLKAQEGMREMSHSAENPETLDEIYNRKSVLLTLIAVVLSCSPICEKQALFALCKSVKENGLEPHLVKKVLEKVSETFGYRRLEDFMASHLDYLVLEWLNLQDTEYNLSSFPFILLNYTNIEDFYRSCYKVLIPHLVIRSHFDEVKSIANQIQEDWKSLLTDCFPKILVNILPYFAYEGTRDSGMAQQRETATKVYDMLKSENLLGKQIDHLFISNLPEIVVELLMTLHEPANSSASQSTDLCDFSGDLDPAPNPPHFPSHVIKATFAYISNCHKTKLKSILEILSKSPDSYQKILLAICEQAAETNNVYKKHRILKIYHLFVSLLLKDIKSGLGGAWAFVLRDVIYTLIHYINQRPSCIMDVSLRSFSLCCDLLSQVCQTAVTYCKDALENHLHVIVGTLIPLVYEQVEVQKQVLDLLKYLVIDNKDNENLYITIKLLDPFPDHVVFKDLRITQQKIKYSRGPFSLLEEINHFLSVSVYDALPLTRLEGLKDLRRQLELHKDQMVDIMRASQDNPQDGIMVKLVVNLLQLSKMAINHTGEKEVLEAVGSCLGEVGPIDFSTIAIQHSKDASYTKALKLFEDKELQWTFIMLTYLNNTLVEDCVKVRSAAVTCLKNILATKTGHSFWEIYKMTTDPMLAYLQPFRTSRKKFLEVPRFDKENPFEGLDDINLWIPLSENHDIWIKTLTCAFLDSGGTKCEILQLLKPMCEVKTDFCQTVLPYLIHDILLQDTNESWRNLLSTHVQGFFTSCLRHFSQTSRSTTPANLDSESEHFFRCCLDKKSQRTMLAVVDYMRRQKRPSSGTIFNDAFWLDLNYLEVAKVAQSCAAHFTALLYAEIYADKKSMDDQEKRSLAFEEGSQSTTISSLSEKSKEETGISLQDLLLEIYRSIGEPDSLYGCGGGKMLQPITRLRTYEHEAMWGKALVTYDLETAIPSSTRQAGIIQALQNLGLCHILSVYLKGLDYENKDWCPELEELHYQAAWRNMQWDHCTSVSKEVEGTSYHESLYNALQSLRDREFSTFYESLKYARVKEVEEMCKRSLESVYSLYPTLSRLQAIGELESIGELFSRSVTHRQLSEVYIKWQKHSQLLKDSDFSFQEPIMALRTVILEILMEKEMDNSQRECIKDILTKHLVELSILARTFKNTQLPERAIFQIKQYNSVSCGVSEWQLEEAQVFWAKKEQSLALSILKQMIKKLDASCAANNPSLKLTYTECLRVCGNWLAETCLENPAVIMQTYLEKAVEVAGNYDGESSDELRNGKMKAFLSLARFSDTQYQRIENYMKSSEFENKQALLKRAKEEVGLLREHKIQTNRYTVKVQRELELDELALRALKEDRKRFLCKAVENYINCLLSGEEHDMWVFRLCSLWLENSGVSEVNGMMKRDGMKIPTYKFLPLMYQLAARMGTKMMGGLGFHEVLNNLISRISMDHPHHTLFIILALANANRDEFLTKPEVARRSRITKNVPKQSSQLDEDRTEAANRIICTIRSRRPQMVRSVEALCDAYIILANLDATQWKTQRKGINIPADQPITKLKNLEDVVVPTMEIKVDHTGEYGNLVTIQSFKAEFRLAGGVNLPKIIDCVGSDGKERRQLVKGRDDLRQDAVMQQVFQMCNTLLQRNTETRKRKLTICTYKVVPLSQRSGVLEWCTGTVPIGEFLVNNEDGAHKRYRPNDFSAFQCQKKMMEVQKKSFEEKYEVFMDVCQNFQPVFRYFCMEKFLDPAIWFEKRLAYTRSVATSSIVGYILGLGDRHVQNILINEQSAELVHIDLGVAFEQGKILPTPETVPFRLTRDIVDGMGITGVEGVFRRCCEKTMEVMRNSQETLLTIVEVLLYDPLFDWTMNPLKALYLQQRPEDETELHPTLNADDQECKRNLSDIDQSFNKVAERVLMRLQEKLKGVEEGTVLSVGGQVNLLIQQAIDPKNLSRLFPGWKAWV

Take `CN(C)[C@@H]1CCN(c2ccc(-c3ccc4ncc5c(c4c3)n([C@@H]3CCCOC3)c(=O)n5C)cn2)C1` [Example 7]: the IC50 on ATM stood at 0.000626 µM; at PI3Kα, 1.22 µM.

`CNC1CCN(c2ccc(-c3ccc4ncc5c(c4c3)n([C@H]3C[C@@H](OC)C3)c(=O)n5C)cn2)CC1` [Example 60, 1-(cis-3-methoxycyclobutyl)-3-methyl-8-[6-[4-(methylamino)-1-piperidyl]-3-pyridyl]imidazo[4,5-c]quinolin-2-one]: the half-inhibitory concentration (IC50) at ATM is 0.000502 µM; at PI3Kα it was 0.292 µM.

Regarding `CO[C@H]1C[C@@H](n2c(=O)n(C)c3cnc4cc(F)c(-c5ccc(N6CC(N(C)C)C6)nc5)cc4c32)C1` [Example 31, 8-[6-[3-(dimethylamino)azetidin-1-yl]-3-pyridyl]-7-fluoro-1-(cis-3-methoxycyclobutyl)-3-methyl-imidazo[4,5-c]quinolin-2-one], the IC50 is 0.0338 µM at ATM and above 30 µM on PI3Kα.

As for `CO[C@H]1C[C@@H](n2c(=O)n(C)c3cnc4cc(F)c(-c5ccc(N6CCC(N(C)C)CC6)nc5)cc4c32)C1` [Example 42, 8-[6-[4-(dimethylamino)-1-piperidyl]-3-pyridyl]-7-fluoro-1-(cis-3-methoxycyclobutyl)-3-methyl-imidazo[4,5-c]quinolin-2-one], the IC50 at ATM was 0.00154 µM; on PI3Kα it was above 30 µM.

Regarding `CO[C@H]1CC[C@H](n2c(=O)n(C)c3cnc4ccc(-c5ccc(N6CCC(N(C)C)CC6)nc5)cc4c32)C1` (single isomer, unassigned) [Example 32, 8-[6-[4-(dimethylamino)-1-piperidyl]-3-pyridyl]-1-[trans-3-methoxycyclopentyl]-3-methyl-imidazo[4,5-c]quinolin-2-one], the IC50 at ATM was found to be 0.000307 µM; on PI3Kα it was 0.663 µM.

`CO[C@H]1C[C@@H](n2c(=O)n(C)c3cnc4ccc(-c5ccc(N6CCC(N(C)C)CC6)nc5)cc4c32)C1` [Example 36, 8-[6-[4-(dimethylamino)-1-piperidyl]-3-pyridyl]-1-(cis-3-methoxycyclobutyl)-3-methyl-imidazo[4,5-c]quinolin-2-one]: the values for the 50% inhibitory concentration (IC50) on ATM and at PI3Kα were 0.000357 µM and 0.987 µM, respectively.

For `CN(C)[C@H]1CCN(c2ccc(-c3cc4c(cc3F)ncc3c4n([C@H]4CCCOC4)c(=O)n3C)cn2)C1` [Example 20], the IC50 at ATM was 0.0365 µM; at PI3Kα it was above 10 µM.

As for `CNC1CCN(c2ccc(-c3cc4c(cc3F)ncc3c4n([C@H]4C[C@@H](OC)C4)c(=O)n3C)cn2)CC1` [Example 57, 7-Fluoro-1-(cis-3-methoxycyclobutyl)-3-methyl-8-[6-[4-(methylamino)-1-piperidyl]-3-pyridyl]imidazo[4,5-c]quinolin-2-one], the values for the IC50 on ATM and at PI3Kα were 0.00116 µM and above 30 µM, respectively.
